Reference: patent US20150239831A1, “INHIBITORS OF CENTRAL NERVOUS SYSTEM VASOACTIVE INHIBITORY PEPTIDE RECEPTOR 2” (The Trustees Of Columbia University In The City Of New York, priority 2012, published 2015)

Key:
Type in all cases: cell-based
Parameters in all cases: expressed in transfected cells; host or cells: HEK293 cells transfected with VIPR2 in pCDNA3.1 (as described)
VIPR2 [1] = molecular target: T1, VIPR2 (Homo sapiens, UniProt P41587); assay: Inhibition of VIP-induced β-arrestin recruitment (% Activity Arrestin)
T1 sequence (P41587 24-438): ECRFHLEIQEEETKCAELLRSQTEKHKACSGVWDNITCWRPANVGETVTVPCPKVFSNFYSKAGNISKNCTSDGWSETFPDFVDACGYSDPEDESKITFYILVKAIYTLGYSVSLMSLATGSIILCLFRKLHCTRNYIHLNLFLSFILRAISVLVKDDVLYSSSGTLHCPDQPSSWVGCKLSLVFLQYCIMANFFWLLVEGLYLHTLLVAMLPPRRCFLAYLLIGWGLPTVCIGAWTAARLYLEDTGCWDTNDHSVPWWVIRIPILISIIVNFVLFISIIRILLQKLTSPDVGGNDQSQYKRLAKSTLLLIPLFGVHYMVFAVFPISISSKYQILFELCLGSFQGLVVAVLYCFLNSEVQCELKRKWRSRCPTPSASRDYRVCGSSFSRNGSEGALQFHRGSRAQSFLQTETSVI
From the text: (§1) In a further non-limiting embodiment of the invention, the ability of a compound to inhibit VIPR2 GPCR activity may be tested, for example, using the PathHunter® eXpress β-Arrestin GPCR system (Discoverx Corporation, Fremont, Calif., US), as used by Chu et al., 2010, Molecular Pharmacol. 7795-101. In this assay, β-Arrestin is fused to the “Enzyme Acceptor” (“EA”), an N-terminal deletion mutant of β-gal, and the GPCR of interest is fused to a smaller (42 amino acids), weakly complementing portion of the β-gal enzyme (termed “ProLink™”). In cells that stably express these fusion proteins, the interaction of β-Arrestin and the GPCR following ligand stimulation forces the complementation of the two β-gal fragments resulting in the formation of a functional enzyme that converts substrate to detectable signal. In the absence of an interaction between the GPCR and β-Arrestin, the enzyme activity is low due to the low affinity of the two enzyme fragments. For example, a nucleic acid encoding VIPR2, for example hVIPR2, may be cloned into the ProLink vector (DiscoveRx) for GPCR-ProLink fusion protein production. Parental HEK293 cells that stably express β-arrestin2-β-gal-EA fusion protein (DiscoveRx) may be detached and transiently transfected with the VIPR2-containing vector using Fugene6 transfection reagent in suspension mode. Transfected cells in assay medium may be plated into test plates, for example at 15,000 cells/25 μl/well. After overnight incubation, 500 nl of an inhibitor or test inhibitor may be introduced into the test plate followed by 2 h incubation at 37° C., 5% CO2. Flash detection reagents may be added at 12.5 μl/well. After 5 min to 1 h of room-temperature incubation, the cell plates may be read on CLIPR (PerkinElmer Life and Analytical Sciences)or Acquest (Molecular Devices, Sunnyvale, Calif.) for luminescence signal.
(§2) A series of compounds were prepared using a synthetic method analogous to that set forth in Scheme 1, above, and then tested for their ability to inhibit VIP-induced cAMP elevation and β-arrestin recruitment.
(§3) A series of compounds were prepared using a synthetic method analogous to that set forth in Scheme 1, above, and then tested for their ability to inhibit VIP-induced cAMP elevation and β-arrestin recruitment, as described herein (Discoverx Corporation, Fremont, Calif., US). Compound activities were also tested in a BRET-based assay, as described herein. The results are shown below in Tables 1-4, above.

VIPR2 [2] = molecular target: T1, VIPR2; assay: Inhibition of VIP-induced cAMP elevation (% Activity cAMP)
From the text: (§4) In a further non-limiting embodiment of the invention, the ability of a compound to inhibit VIPR2 and thereby […] a VIP-induced increase in cAMP may be measured using a Homogeneous Time-Resolved Fluorescence (“HTRF® assay; Cisbio Bioassays) as used in Chu et al., 2010, Molecular Pharmacol. 7795-101. In a method as used in Chu et al., 2010, Molecular Pharmacol. 7795-101, HEK293 cells may be transfected with nucleic acid encoding VIPR2, for example human VIPR2 (“hVIPR2”), for example comprised in a vector such as pCDNA3.1 vector. Successful transformants may then be selected, for example using 800 μg/ml G418. Clonal stable cell lines may then be generated by limited dilution to single cells and then may be clonally expanded and tested for VIP -dependent cAMP response. For the cAMP assay, about 3000-15,000 cells (in about 4-25 μl) may be placed in a well of an assay plate. The next day, inhibitor or test inhibitor and VIP may be added in a volume about 1-2 percent of the initial volume. Assay plates may then be returned to a cell incubator for 30 min before addition of a one-half volume of cAMP conjugate and, relative to the amount of cAMP conjugate, an equal volume of anti-cAMP conjugate (Cisbio). After at least 1 h of room-temperature incubation, HTRF signal may be read, for example using Viewlux or EnVision (PerkinElmer Life and Analytical Sciences, Waltham, Mass.). The ratio of […] at 665 nm and 620 nm times 10,000 may be calculated and plotted.
as §2, §3

VIPR2 [3] = molecular target: T1, VIPR2; assay: % Activity: inhibition of VIP-induced cAMP elevation and β-arrestin recruitment (Table 2)
From the text: as §4, §1, §3

| inhibition at 0.5 µM (VIPR2 [1]; Batch 1) [%] | inhibition at 1 µM (VIPR2 [1]; Batch 1) [%] | inhibition at 5 µM (VIPR2 [1]; Batch 1) [%] | inhibition at 0.5 µM (VIPR2 [2]; Batch 1) [%] | inhibition at 1 µM (VIPR2 [2]; Batch 1) [%] | inhibition at 5 µM (VIPR2 [2]; Batch 1) [%] | % Activity (VIPR2 [3]) [%] | inhibition at 0.5 µM (VIPR2 [1]; Batch 2) [%] | inhibition at 1 µM (VIPR2 [1]; Batch 2) [%] | inhibition at 5 µM (VIPR2 [1]; Batch 2) [%] | inhibition at 0.5 µM (VIPR2 [2]; Batch 2) [%] | inhibition at 1 µM (VIPR2 [2]; Batch 2) [%] | inhibition at 5 µM (VIPR2 [2]; Batch 2) [%] | inhibition at 0.5 µM (VIPR2 [1]; Batch 3) [%] | inhibition at 1 µM (VIPR2 [1]; Batch 3) [%] | inhibition at 5 µM (VIPR2 [1]; Batch 3) [%] | inhibition at 0.5 µM (VIPR2 [2]; Batch 3) [%] | inhibition at 1 µM (VIPR2 [2]; Batch 3) [%] | inhibition at 5 µM (VIPR2 [2]; Batch 3) [%] | SMILES |
| --- | --- | --- | --- | --- | --- | --- | --- | --- | --- | --- | --- | --- | --- | --- | --- | --- | --- | --- | --- |
| 17.3 | 31.6 | 23.4 | 21.4 | 21.9 | 18.5 | 20.95 |  |  |  |  |  |  |  |  |  |  |  |  | CS(=O)(=O)NC[C@@H](O)C[C@@H](Cc1ccccc1)C(=O)N[C@H]1c2ccccc2C[C@H]1O [Compound A5] |
|  |  |  |  |  |  | 34.25 |  |  |  |  |  |  | 6.3 | -1.6 | -1 | 13.8 | 22.1 | 69.5 | CNC(=O)c1ccc(S(=O)(=O)NC[C@@H](O)C[C@@H](Cc2ccccc2)C(=O)N[C@H]2c3ccccc3C[C@H]2O)cc1 [Compound X095] |
|  |  |  |  |  |  | 10.05 |  |  |  |  |  |  | 4.1 | 1.8 | -5.4 | -1.4 | 0.1 | 25.5 | O=C(N[C@H]1c2ccccc2C[C@H]1O)[C@H](Cc1ccccc1)C[C@H](O)CNS(=O)(=O)c1ccc(C(=O)N2CCOCC2)cc1 [Compound X099] |
|  |  |  |  |  |  | 15.2 |  |  |  |  |  |  | 2.8 | 2.3 | 11.3 | 10.8 | 19.1 | 19.1 | CCCCCNc1ccc(S(=O)(=O)NC[C@@H](O)C[C@@H](Cc2ccccc2)C(=O)N[C@H]2c3ccccc3C[C@H]2O)cc1 [Compound X087] |
| -6.8 | -5.7 | -6.3 | 15.2 | 13.5 | 16.4 | 5.05 |  |  |  |  |  |  |  |  |  |  |  |  | O=C(NC[C@@H](O)C[C@@H](Cc1ccccc1)C(=O)N[C@H]1c2ccccc2C[C@H]1O)c1cccnc1 [Compound A16] |
|  |  |  |  |  |  | 15.3 |  |  |  |  |  |  | 0.3 | 3.1 | -1.2 | 2.5 | 5.9 | 31.8 | CCN(CC)C(=O)c1ccc(S(=O)(=O)NC[C@@H](O)C[C@@H](Cc2ccccc2)C(=O)N[C@H]2c3ccccc3C[C@H]2O)cc1 [Compound X096] |

Continued, compound first:

| SMILES | inhibition at 0.5 µM (VIPR2 [1]; Batch 1) [%] | inhibition at 1 µM (VIPR2 [1]; Batch 1) [%] | inhibition at 5 µM (VIPR2 [1]; Batch 1) [%] | inhibition at 0.5 µM (VIPR2 [2]; Batch 1) [%] | inhibition at 1 µM (VIPR2 [2]; Batch 1) [%] | inhibition at 5 µM (VIPR2 [2]; Batch 1) [%] | % Activity (VIPR2 [3]) [%] | inhibition at 0.5 µM (VIPR2 [1]; Batch 2) [%] | inhibition at 1 µM (VIPR2 [1]; Batch 2) [%] | inhibition at 5 µM (VIPR2 [1]; Batch 2) [%] | inhibition at 0.5 µM (VIPR2 [2]; Batch 2) [%] | inhibition at 1 µM (VIPR2 [2]; Batch 2) [%] | inhibition at 5 µM (VIPR2 [2]; Batch 2) [%] | inhibition at 0.5 µM (VIPR2 [1]; Batch 3) [%] | inhibition at 1 µM (VIPR2 [1]; Batch 3) [%] | inhibition at 5 µM (VIPR2 [1]; Batch 3) [%] | inhibition at 0.5 µM (VIPR2 [2]; Batch 3) [%] | inhibition at 1 µM (VIPR2 [2]; Batch 3) [%] | inhibition at 5 µM (VIPR2 [2]; Batch 3) [%] |
| --- | --- | --- | --- | --- | --- | --- | --- | --- | --- | --- | --- | --- | --- | --- | --- | --- | --- | --- | --- |
| O=C(NC[C@@H](O)C[C@@H](Cc1ccccc1)C(=O)N[C@H]1c2ccccc2C[C@H]1O)c1cccc([N+](=O)[O-])c1 [M] | 19.9 | 7.4 | -4 | 11.8 | 11 | 13.5 | 4.75 |  |  |  |  |  |  |  |  |  |  |  |  |
| O=C(NC1CCCC1)[C@@H](Cc1ccccc1)C[C@H](O)CNS(=O)(=O)c1ccc([N+](=O)[O-])cc1 [Compound B1B] |  |  |  |  |  |  | 0.5 | -5.7 | -6.1 | 1.3 | -7.5 | -2.5 | -0.3 |  |  |  |  |  |  |
| CCN(CC)C(=O)[C@@H](Cc1ccccc1)C[C@H](O)CNS(=O)(=O)c1ccc([N+](=O)[O-])cc1 [Compound B15B] |  |  |  |  |  |  | −6.6 | -3.6 | 1.2 | -2.7 | 0.5 | -8.4 | -10.5 |  |  |  |  |  |  |
| C[C@H](CC(C)(C)C)NC(=O)[C@@H](Cc1ccccc1)C[C@H](O)CNS(=O)(=O)c1ccc([N+](=O)[O-])cc1 [Compound B10B] |  |  |  |  |  |  | 13.8000 | 36.8 | 27.9 | 20.2 | 6.5 | 19.6 | 7.4 |  |  |  |  |  |  |
| CCNC(=O)[C@H](Cc1ccccc1)C[C@H](O)CNS(=O)(=O)c1ccc([N+](=O)[O-])cc1 [Compound B16A] |  |  |  |  |  |  | −9.25 | 15.2 | 0.1 | -12.3 | -7.1 | -0.4 | -6.2 |  |  |  |  |  |  |
| CCCCNC(=O)[C@H](Cc1ccccc1)C[C@H](O)CNS(=O)(=O)c1ccc([N+](=O)[O-])cc1 [Compound B7A] |  |  |  |  |  |  | 9.55 | -5.6 | 1.9 | 13.8 | 0.9 | 5.1 | 5.3 |  |  |  |  |  |  |
| O=C(N[C@H]1c2ccccc2C[C@H]1O)[C@H](Cc1ccccc1)C[C@H](O)CNS(=O)(=O)c1ccccc1F [T] | 5.3 | 28.3 | 52 | 28.6 | 22.3 | 28.3 | 40.15 |  |  |  |  |  |  |  |  |  |  |  |  |
| C[C@H](CC(C)(C)C)NC(=O)[C@H](Cc1ccccc1)C[C@H](O)CNS(=O)(=O)c1ccc([N+](=O)[O-])cc1 [Compound B10A] |  |  |  |  |  |  | −5.2 | 23.3 | 3 | -10.3 | -7.9 | 4.4 | -0.1 |  |  |  |  |  |  |
| O=C(N[C@H]1c2ccccc2C[C@H]1O)[C@H](Cc1ccccc1)C[C@H](O)CNS(=O)(=O)c1cccc([N+](=O)[O-])c1 [L] | 24.2 | 35.1 | 33.4 | 18.4 | 15.2 | 21.3 | 27.35 |  |  |  |  |  |  |  |  |  |  |  |  |
| O=C([C@@H](Cc1ccccc1)C[C@H](O)CNS(=O)(=O)c1ccc([N+](=O)[O-])cc1)N1CCCCC1 [Compound B18B] |  |  |  |  |  |  | 12.15 | 0.5 | 9.2 | 14.9 | 14.2 | 14.2 | 9.4 |  |  |  |  |  |  |
| O=C([C@@H](Cc1ccccc1)C[C@H](O)CNS(=O)(=O)c1ccc([N+](=O)[O-])cc1)N1CCOCC1 [Compound B9B] |  |  |  |  |  |  | 1.65 | 7 | -13 | 0.3 | -5.8 | 10.4 | 3 |  |  |  |  |  |  |
